Source: US20260317367A1, “SALTS INCLUDING CRYSTALLINE SALTS OF 25-HYDROXY-CHOLEST-5-EN-3-SULFATE AND METHODS FOR PREPARING SAME” (Durect Corporation, priority 2022, published 2026)
Where a name gives a salt, the structure may show the parent alone. One block for each molecule: values may come before it.

Experiments:
Type in all cases: physicochemical
[1] = Overall rank order of powder flowability (angle of repose and Hausner ratio); conditions: for Powder flowability, overall (in words): angle of repose and compressibility index/Hausner ratio combined; for Angle of Repose Rank Order / Hausner Ratio Rank Order / Overall Rank Order (Total Score): lower is better flow; for Overall Rank Order (Total Score): sum of both ranks
From the text: Table C5 was generated by adding the relative rank order of the 25HC3S salts for angle of repose and Hausner ratio results, and creating an Over All Rank Order of the salts powder flowability. The salts with the lower overall rank order score had better powder flowability.

[2] = Appearance (color, clumping, flowability) of stored 25HC3S salts
Experimental: (§1) Approximately 25 mg of each crystalline 25HC3S salt was added to 20 mL glass vials and each powder weight was recorded. Four vials were prepared for each salt and stored at 2-8° C. or 80° C. according to Table B2. The samples were scheduled initially to pull for testing at 3 weeks and 6 weeks' time points.
(§2) For those […] salts, the remaining vials stored at 2-8° C. for 3 weeks were allocated for storage at 60° C. for 1 week. Additional stability data was generated according to Table B3.
For appearance, each unopened vial was visually examined for color, clumping, and flowability.

[3] = Final pH of the solubility sample solutions in aqueous media; conditions: for pH of the solubility sample, 0.9% Sodium Chloride: 0.9% sodium chloride (blank 5.8); for pH of the solubility sample, 5% Dextrose: 5% dextrose (blank 4.7); for pH of the solubility sample, FaSSGF: FaSSGF (blank 1.5, 1.6); for pH of the solubility sample, FaSSIF: FaSSIF (blank 6.5, 6.5); for pH of the solubility sample, FeSSIF: FeSSIF (blank 4.9, 5.0); for pH of the solubility sample, Water: water (blank 6.3)
Experimental: (§3) 25HC3S salts were weighed in 8 mL or 4 mL glass vials with Teflon coated screw caps. Aliquots of each solvent were added to each sample and vortexed for about one minute until excess solid remained. Samples were placed on shaker at room temperature with 210 motion per minute shaking.
(§4) After one day, samples were pulled and checked if excess solid was present. About 1.5 mL aliquot of each sample was centrifuged at 12000 rpm for 12 to 15 minutes. […] Aliquots of the top clear solution of each centrifuged sample in MeOH, EtOH, IPA and ACN were diluted with diluent (water:MeOH 95:5) and assayed by HPLC. Samples of the salts in aqueous media were assayed by HPLC without dilution.
5.1 Solubility of 25HC3S Salts in Aqueous Media

[4] = Solubility of 25HC3S salts after one day at room temperature (HPLC, as free acid); conditions: one day
Experimental: These fluids were prepared per the instruction listed by Biorelevant (Biorelevant.com). Each buffer concentrate was diluted with water and mixed well. FaSSIF, FeSSIF, FaSSGF powder was added to each buffer and mixed to completely dissolve the powder. Buffers were stored at room temperature and used within 48 hours of preparation.
as §3, §4
All solubility sample solutions of 25HC3S salts were determined using HPLC. A linear standard curve was constructed using standards with concentration between 11 μg/mL to 1.5 mg/mL as free acid forcing the curve to origin. Solubilities are reported as mg/mL free acid 25HC3S. Detection limit (LOD) of the HPLC method was calculated as 0.0007 mg/mL.

[5] = Solid-state chemical stability of 25HC3S salts at 2-8° C., 60° C. and 80° C. (HPLC assay and degradation products); conditions: for % Impurities, Total / % Impurities, 25-HC: ND = Not Detected; for % Impurities, 25-HC: 25-Hydroxy-Cholesterol; for % Recovery: vs 2-8° C.; for Stability after 1 week at 60° C. (in words): 1 week (after 3 weeks at 2-8° C.)
Experimental: as §1, §2
Based on the molecular weights, and expected UV response factors of each salt used in this study, the expected analytical sample concentrations were within the range of the 25HC3S sodium reference standards (0.75 mg/mL to 1.25 mg/mL as 25HC3S sodium salt). However, due to the lower-than-expected purity of the 25HC3S benzathine salt, an additional standard was prepared at 0.125 mg/mL as 25HC3S sodium salt.
Samples were prepared by pipetting 20 mL of 100% methanol into each vial and mixing well, with sonication and vortexing to fully dissolve the samples for HPLC analysis.
Samples were prepared by pipetting 20 mL of 100% methanol into each vial followed by two rounds of sonication for 30 minutes, with 30 seconds of vortexing before and after each round. Sample aliquots were then centrifuged at 10,000 RPM for 10 minutes and the supernatant collected for HPLC analysis.
Samples were prepared by pipetting 20 mL of 100% methanol into each vial, followed by 5 seconds of vortexing. The undissolved powder in methanol was quantitatively transferred into 200 mL volumetric flasks. The sample vials were rinsed 3 times with methanol, with each rinsate transferred to the 200 mL volumetric flasks. The volumetric flasks were filled to about 90% volume and sonicated for 10 minutes to fully dissolve the powder. The flasks were filled to volume with methanol, mixed well and aliquots collected for HPLC analysis.
HPLC analysis was performed.

[6] = Angle of repose of 25HC3S salts; conditions: for Flow Property per USP<1174> Powder Flow: classification by angle of repose
Experimental: Angle of repose is measured as follows. Powder is poured from a funnel onto a flat surface until a cone of powder is created. The angle of repose is calculated according to the following equation: […]
Table C1, from USP<1174> Powder Flow, describes the powder flow properties correlating to the angles of repose.
The lower the angle of repose, the more flowable is a material. Powder with an angle of repose between 25° to 30° will show excellent flow through a hopper, feed frame, die table and die bore smoothly. From 41° to greater than 66°, you may experience powder flow difficulties like rat-holing or bridging within the hopper.
The angle of repose was determined by pouring approximately 2 grams of a 25HC3S salt through a 7 mm inner diameter plastic tube into the center of a 21.14 mm diameter rubber O-ring, resulting in the formation of a powder cone of fixed diameter. The height of the cone was estimated with calipers.

[7] = 2-8° C., 3 wk, listed as 25HC3S potassium
[8] = 80° C., 3 wk, listed as 25HC3S potassium
[9] = room temperature, listed as crystalline 25HC3S potassium
[10] = 60° C., 1 wk, listed as 25HC3S potassium
[11] = 2-8° C., 3 wk, listed as 25HC3S calcium
[12] = 80° C., 3 wk, listed as 25HC3S calcium
[13] = room temperature, listed as crystalline 25HC3S calcium

- Powder flowability, overall (in words) ([1]; listed as potassium): top three
- Angle of Repose Rank Order ([1]; listed as 25HC3S potassium): 6
- Hausner Ratio Rank Order ([1]; listed as 25HC3S potassium): 3
- Overall Rank Order (Total Score) ([1]; listed as 25HC3S potassium): 9
- Appearance [2, 7]: White, free flowing powder with some
- Appearance ([2]; 60° C., 1 wk (after 3 weeks at 2-8° C.), listed as 25HC3S potassium): White, free flowing powder with some
- Appearance after 3 weeks at 80° C. ([2]; 80° C.): completely burned
- Appearance [2, 8]: Dark brown powder, stuck to bottom of
- pH of the solubility sample, 0.9% Sodium Chloride ([3]; listed as 25HC3S potassium): 8.4
- pH of the solubility sample, 5% Dextrose ([3]; listed as 25HC3S potassium): 7.3
- pH of the solubility sample, FaSSGF [3]: 1.6
- pH of the solubility sample, FaSSIF ([3]; listed as 25HC3S potassium): 6.5
- pH of the solubility sample, FeSSIF [3]: 5.0
- pH of solubility sample solution in water ([3]; water): 8.9
- pH of the solubility sample, Water ([3]; listed as 25HC3S potassium): 8.9
- Solubility in FaSSGF (in words) [4, 9]: low solubility
- Solubility in FaSSGF ([4]; Fasted State Simulated Gastric Fluid, pH 1.6, room temperature, as free acid, LOD 0.0007 mg/mL, 1440 min): 2 µg/mL
- Solubility in saline / 0.9% sodium chloride (in words) [4, 9]: low solubility
- % Impurities, Total [5, 7]: 1.3%
- % Impurities, 25-HC [5, 7]: 0.2%
- % Impurities, 25-HC [5, 10]: 0.3%
- Physical and chemical solid-state stability (comments) ([5]; 60° C., 1 week, listed as 25HC3S Potassium): Stable after 1 week at 60 C.
- Assay ([5]; 60° C., 1 wk (after 3 weeks at 2-8° C.), 10080 min, listed as 25HC3S potassium, 10080 min): 103.1 % w/w
- % Recovery of 2-8° C./3 wk vs 60° C./1 wk ([5]; 60° C., 1 wk, 10080 min, listed as 25HC3S potassium): 105.4%
- % Impurities, Total [5, 10]: 1.6%
- Physical and chemical solid-state stability (comments) ([5]; 80° C., 3 weeks, listed as 25HC3S Potassium): totally decomposed after 3 weeks
- % Recovery ([5]; 80° C., 3 wk, 30240 min, listed as 25HC3S potassium, 30240 min): 0.0%
- Assay ([5]; 80° C., 3 wk, 30240 min, listed as 25HC3S potassium): 0.0 % w/w
- % Impurities, Total [5, 8]: 100%
- remaining at 504 h ([5]; solid state, 2-8° C., 3 wk, read-out: Assay): 97.8%
- Stability after 1 week at 60° C. (in words) ([5]; solid state, 60° C.): stable
- Stability after 3 weeks at 80° C. (in words) ([5]; solid state, 80° C., 3 weeks): totally decomposed
- Flow Property per USP<1174> Powder Flow ([6]; listed as 25HC3S potassium): Fair - aid not needed
- Angle of Repose ([6]; listed as 25HC3S potassium): 37.7 degrees
- Angle of Repose, Rounded Whole Number ([6]; listed as 25HC3S potassium): 38 degrees
SMILES: CC(CCCC(C)(C)O)C1CCC2C3CC=C4CC(OS(=O)(=O)O)CCC4(C)C3CCC12C (stereo not drawn) [Salt #1]

- Powder flowability, overall (in words) ([1]; listed as calcium): poorer flowability
- Angle of Repose Rank Order ([1]; listed as 25HC3S calcium): 11
- Hausner Ratio Rank Order ([1]; listed as 25HC3S calcium): 11
- Overall Rank Order (Total Score) ([1]; listed as 25HC3S calcium): 22
- Appearance [2, 11]: White, free flowing powder with some
- Appearance ([2]; 60° C., 1 wk (after 3 weeks at 2-8° C.), listed as 25HC3S calcium): Brown, melted material stuck to bottom
- Appearance after 3 weeks at 80° C. ([2]; 80° C.): completely burned
- Appearance [2, 12]: Dark brown, melted material stuck to
- pH of the solubility sample, 0.9% Sodium Chloride ([3]; listed as 25HC3S calcium): 8.5
- pH of solubility sample solution in 0.9% sodium chloride ([3]; 0.9% sodium chloride (medium pH 5.8)): 8.5
- pH of the solubility sample, 5% Dextrose ([3]; listed as 25HC3S calcium): 7.2
- pH of the solubility sample, FaSSGF [3]: 1.6
- pH of the solubility sample, FaSSIF ([3]; listed as 25HC3S calcium): 6.5
- pH of the solubility sample, FeSSIF [3]: 5.0
- pH of the solubility sample, Water ([3]; listed as 25HC3S calcium): 8.8
- Solubility in 5% Dextrose ([4]; 5% dextrose, room temperature, as free acid, LOD 0.0007 mg/mL, 1440 min): 5 µg/mL
- Solubility in FaSSGF (in words) [4, 13]: low solubility
- Solubility in FaSSIF (in words) ([4]; FaSSIF, room temperature, listed as crystalline 25HC3S calcium): relatively high solubility
- Solubility in saline / 0.9% sodium chloride (in words) [4, 13]: low solubility
- Assay ([5]; 2-8° C., 3 wk, 30240 min, listed as 25HC3S calcium): 92.9 % w/w
- % Impurities, Total [5, 11]: 1.6%
- Overall physical and chemical stability (in words) ([5]; 2-8° C., 60° C., 80° C.): least physically and chemically stable
- Overall physical and chemical stability (in words) ([5]; 2-8° C., 60° C., 80° C., listed as 25HC35S calcium): least stable
- % Impurities, 25-HC [5, 11]: 0.2%
- Physical and chemical solid-state stability (comments) ([5]; 60° C., 1 week, listed as 25HC3S Calcium): Totally decomposed after 1 week at 60 °C
- Assay ([5]; 60° C., 1 wk (after 3 weeks at 2-8° C.), 10080 min, listed as 25HC3S calcium, 10080 min): 0.0 % w/w
- % Recovery of 2-8° C./3 wk vs 60° C./1 wk ([5]; 60° C., 1 wk, 10080 min, listed as 25HC3S calcium): 0.0%
- % Recovery ([5]; 80° C., 3 wk, 30240 min, listed as 25HC3S calcium, 30240 min): 0.0%
- Assay ([5]; 80° C., 3 wk, 30240 min, listed as 25HC3S calcium): 0.0 % w/w
- % Impurities, Total [5, 12]: 100%
- Stability after 1 week at 60° C. (in words) ([5]; solid state, 60° C.): totally decomposed
- Stability after 3 weeks at 80° C. (in words) ([5]; solid state, 80° C., 3 weeks): totally decomposed
- Flow Property per USP<1174> Powder Flow ([6]; listed as 25HC3S calcium): Passable - may hang up
- Angle of Repose ([6]; listed as 25HC3S calcium): 42.6 degrees
- Angle of Repose, Rounded Whole Number ([6]; listed as 25HC3S calcium): 43 degrees
SMILES: CC(CCCC(C)(C)O)C1CCC2C3CC=C4CC(OS(=O)(=O)O)CCC4(C)C3CCC12C (stereo not drawn) [Salt #2]
- Physical and chemical solid-state stability (comments) ([5]; 80° C., 3 weeks, listed as 25HC3S Calcium): Totally decomposed after 1 week at 60 °C and after 3 weeks at 80 °C
- degradants dissolved in the diluent (comments) ([5]; after 1 week at 60° C. and 3 weeks at 80° C.): degradants were dissolved in the diluent.extract
